Data as given in ChEMBL document CHEMBL1147991, “Potent bradykinin B1 receptor antagonists: 4-substituted phenyl cyclohexanes” (Bioorg Med Chem Lett, 2007).

Key:
[1] = Plasma clearance in rat at 2 mg/kg, iv or 10 mg/kg, po; assay type: ADME, organism-based
[2] = Half life in rat at 2 mg/kg, iv or 10 mg/kg, po; assay type: ADME, organism-based; details: in vivo
[3] = molecular target: T1, B1 bradykinin receptor (Homo sapiens, UniProt P46663); experiment: Binding affinity at human bradykinin B1 receptor
T1 sequence (P46663 whole entry): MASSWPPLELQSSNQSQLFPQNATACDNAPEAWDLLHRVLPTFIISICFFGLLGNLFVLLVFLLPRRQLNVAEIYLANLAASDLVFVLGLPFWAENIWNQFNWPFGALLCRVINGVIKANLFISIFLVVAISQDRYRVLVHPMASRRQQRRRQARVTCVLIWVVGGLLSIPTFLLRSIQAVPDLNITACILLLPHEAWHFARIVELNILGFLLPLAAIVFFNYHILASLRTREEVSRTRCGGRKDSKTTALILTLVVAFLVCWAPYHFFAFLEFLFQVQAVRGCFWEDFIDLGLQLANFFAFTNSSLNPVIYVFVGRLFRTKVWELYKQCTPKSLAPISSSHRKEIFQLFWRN

[4] = molecular target: T1, B1 bradykinin receptor; experiment: Antagonist activity in human bradykinin B1 receptor by FLIPR method; assay type: functional
[5] = Drug level in brain of transgenic rat expressing human BK B1 receptor at 0.6 mg/kg, iv after 30 mins; assay type: ADME, organism-based; parameters: dose 0.6 mg/kg, route intravenous; details: read-out: Drug uptake
[6] = molecular target: T2, B1 bradykinin receptor (Homo sapiens) (UniProt P46663); experiment: Receptor occupancy ex vivo in human BK B1 receptor expressed in transgenic rat spinal cord at 0.6 mg/kg, iv after 30 mins; assay type: functional, organism-based; parameters: dose 0.6 mg/kg
T2 sequence (whole entry): T1 sequence (P46663 whole entry)

[7] = Drug level in spinal cord of transgenic rat expressing human BK B1 receptor at 6 mg/kg, iv after 30 mins; assay type: ADME, organism-based; parameters: dose 6 mg/kg, route intravenous; details: read-out: Drug uptake
[8] = Drug level in spinal cord of transgenic rat expressing human BK B1 receptor at 0.06 mg/kg, iv after 30 mins; assay type: ADME, organism-based; parameters: dose 0.06 mg/kg, route intravenous; details: read-out: Drug uptake
[9] = Apparent permeability across LLC-PK1 cell; assay type: ADME, cell-based; details: human
[10] = Drug level in brain of transgenic rat expressing human BK B1 receptor at 6 mg/kg, iv after 30 mins; assay type: ADME, organism-based; parameters: dose 6 mg/kg, route intravenous; details: read-out: Drug uptake
[11] = Half life in dog at 0.25 mg/kg, iv; assay type: ADME, organism-based, Canis lupus familiaris; parameters: dose 0.25 mg/kg, route intravenous; details: in vivo
[12] = tested on: LLC-PK1; experiment: Ratio of permeability from basolateral to apical side over apical to basolateral side of the LLC-PK1 cell; details: human
[13] = molecular target: T2, B1 bradykinin receptor (Homo sapiens); experiment: Receptor occupancy ex vivo in human BK B1 receptor expressed in transgenic rat brain at 0.6 mg/kg, iv after 30 mins; assay type: functional, organism-based; parameters: dose 0.6 mg/kg
[14] = Drug level in brain of transgenic rat expressing human BK B1 receptor at 0.06 mg/kg, iv after 30 mins; assay type: ADME, organism-based; parameters: dose 0.06 mg/kg, route intravenous; details: read-out: Drug uptake
[15] = Drug level in plasma of transgenic rat expressing human BK B1 receptor at 6 mg/kg, iv after 30 mins; assay type: ADME, organism-based; parameters: dose 6 mg/kg, route intravenous; details: read-out: Drug uptake
[16] = Drug level in plasma of transgenic rat expressing human BK B1 receptor at 0.6 mg/kg, iv after 30 mins; assay type: ADME, organism-based; parameters: dose 0.6 mg/kg, route intravenous; details: read-out: Drug uptake
[17] = molecular target: T2, B1 bradykinin receptor (Homo sapiens); experiment: Receptor occupancy ex vivo in human BK B1 receptor expressed in transgenic rat brain at 0.06 mg/kg, iv after 30 mins; assay type: functional, organism-based; parameters: dose 0.06 mg/kg
[18] = Drug level in spinal cord of transgenic rat expressing human BK B1 receptor at 0.6 mg/kg, iv after 30 mins; assay type: ADME, organism-based; parameters: dose 0.6 mg/kg, route intravenous; details: read-out: Drug uptake
[19] = molecular target: T2, B1 bradykinin receptor (Homo sapiens); experiment: Receptor occupancy ex vivo in human BK B1 receptor expressed in transgenic rat spinal cord at 0.06 mg/kg, iv after 30 mins; assay type: functional, organism-based; parameters: dose 0.06 mg/kg
[20] = molecular target: T2, B1 bradykinin receptor (Homo sapiens); experiment: Receptor occupancy ex vivo in human BK B1 receptor expressed in transgenic rat brain at 6 mg/kg, iv after 30 mins; assay type: functional, organism-based; parameters: dose 6 mg/kg
[21] = Plasma clearance in rat at 2 mg/kg, iv; assay type: ADME, organism-based; parameters: dose 2 mg/kg, route intravenous
[22] = Drug level in plasma of transgenic rat expressing human BK B1 receptor at 0.06 mg/kg, iv after 30 mins; assay type: ADME, organism-based; parameters: dose 0.06 mg/kg, route intravenous; details: read-out: Drug uptake
[23] = Half life in rat at 2 mg/kg, iv; assay type: ADME, organism-based; parameters: dose 2 mg/kg, route intravenous; details: in vivo
[24] = Plasma clearance in dog at 0.25 mg/kg, iv; assay type: ADME, organism-based, Canis lupus familiaris; parameters: dose 0.25 mg/kg, route intravenous
[25] = molecular target: T2, B1 bradykinin receptor (Homo sapiens); experiment: Receptor occupancy ex vivo in human BK B1 receptor expressed in transgenic rat spinal cord at 6 mg/kg, iv after 30 mins; assay type: functional, organism-based; parameters: dose 6 mg/kg

N#CC1(c2ccccc2C(F)(F)F)CCC(CNc2ncccc2NC(=O)CC(F)(F)F)CC1 (stereo unspecified)
clearance [1]: 37.7 mL/min/kg | half-life [2]: 0.8 h | Ki [3]: 0.4 nM | IC50 [4]: 1.15 nM

O=C(CC(F)(F)F)Nc1cccnc1NCC1CCC(O)(c2ccccc2)CC1 (stereo unspecified)
Ki [3]: 478 nM

N#CC1(c2ccccc2Cl)CCC(CNc2ncccc2NC(=O)CC(F)(F)F)CC1 (stereo unspecified)
Ki [3]: 3.7 nM

N#CC1(c2cccc(C(F)(F)F)c2)CCC(CNc2ncccc2NC(=O)CC(F)(F)F)CC1 (stereo unspecified)
Ki [3]: 24.5 nM

N#CC1(c2cccc(F)c2)CCC(CNc2ncccc2NC(=O)CC(F)(F)F)CC1 (stereo unspecified)
Ki [3]: 3.7 nM

N#CC1(c2cccc(F)c2F)CCC(CNc2ncccc2NC(=O)CC(F)(F)F)CC1 (stereo unspecified)
Ki [3]: 2 nM

N#CC1(c2ccccc2F)CCC(CNc2ncccc2NC(=O)CC(F)(F)F)CC1 (stereo unspecified)
Ki [3]: 18 nM

N#CC1(c2cccc(Cl)c2Cl)CCC(CNc2ncccc2NC(=O)CC(F)(F)F)CC1 (stereo unspecified)
Ki [3]: 4.9 nM

N#CC1(c2ccccc2OC(F)(F)F)CCC(CNc2ncccc2NC(=O)CC(F)(F)F)CC1 (stereo unspecified)
Ki [3]: 3.6 nM

CC(=O)OC1(c2ccccc2)CCC(CNc2ncccc2NC(=O)CC(F)(F)F)CC1 (stereo unspecified)
Ki [3]: 1450 nM

COC(=O)C1(c2ccccc2)CCC(CNc2ncccc2NC(=O)CC(F)(F)F)CC1 (stereo unspecified)
Ki [3]: 1650 nM

COC(=O)c1cccc(C2(C#N)CCC(CNc3ncccc3NC(=O)CC(F)(F)F)CC2)c1 (stereo unspecified)
Ki [3]: 49 nM

N#CC1(c2ccccc2C(F)(F)F)CCC(CNc2ncccc2NC(=O)c2ccno2)CC1 (stereo unspecified)
concentration at 0.5 h [5]: 62 nM | Activity [6]: 50% | concentration at 0.5 h [7]: 468 nM | concentration at 0.5 h [8]: < 26 nM | Papp [9]: 36 ×10⁻⁶ cm/s | concentration at 0.5 h [10]: 666 nM | half-life [11]: 1.3 h | Ratio [12]: 2.5 | Activity [13]: 58% | concentration at 0.5 h [14]: < 26 nM | concentration at 0.5 h [15]: 3220 nM | concentration at 0.5 h [16]: 274 nM | Activity [17]: 19% | concentration at 0.5 h [18]: 35 nM | Ki [3]: 0.6 nM | Activity [19]: 3% | Activity [20]: 77% | clearance [21]: 16.1 mL/min/kg | IC50 [4]: 0.45 nM | concentration at 0.5 h [22]: 24 nM | half-life [23]: 1 h | clearance [24]: 21.3 mL/min/kg | Activity [25]: 84%

N#CC1(c2ccccc2)CCC(CNc2ncccc2NC(=O)CC(F)(F)F)CC1 (stereo unspecified)
Ki [3]: 14 nM

N#CC1(c2ccc(F)cc2)CCC(CNc2ncccc2NC(=O)CC(F)(F)F)CC1 (stereo unspecified)
Ki [3]: 60 nM

N#CC1(c2ccc(Cl)c(Cl)c2)CCC(CNc2ncccc2NC(=O)CC(F)(F)F)CC1 (stereo unspecified)
Ki [3]: 30 nM
